Measurements published in PMC6173509, “C-3- and C-4-Substituted Bicyclic Coumarin Sulfamates as Potent Steroid Sulfatase Inhibitors” (ACS Omega, 2018).

Columns and labels:
steroid sulfatase (STS) [1] = target: T1, steroid sulfatase (STS) (Homo sapiens, UniProt P08842); experiment: STS inhibition in intact MCF-7 breast cancer cells; format: cell-based; design: endogenous in cells; host or cells: MCF-7 breast cancer cells; settings: for inhibition at 0.1 µM: MCF7, read-out: % Inhibition of STS Activity in Intact MCF-7 Breast Cancer Cells at 0.1 μM; for inhibition at 1 µM: MCF7, read-out: % Inhibition of STS Activity in Intact MCF-7 Breast Cancer Cells at 1 μM; for inhibition at 10 µM: MCF7, read-out: % Inhibition of STS Activity in Intact MCF-7 Breast Cancer Cells at 10 μM; for IC50: 3 nM E1S; for inhibition at 0.01 µM: MCF7, read-out: % Inhibition of STS Activity in Intact MCF-7 Breast Cancer Cells at 0.01 μM
T1 sequence (P08842 22-583): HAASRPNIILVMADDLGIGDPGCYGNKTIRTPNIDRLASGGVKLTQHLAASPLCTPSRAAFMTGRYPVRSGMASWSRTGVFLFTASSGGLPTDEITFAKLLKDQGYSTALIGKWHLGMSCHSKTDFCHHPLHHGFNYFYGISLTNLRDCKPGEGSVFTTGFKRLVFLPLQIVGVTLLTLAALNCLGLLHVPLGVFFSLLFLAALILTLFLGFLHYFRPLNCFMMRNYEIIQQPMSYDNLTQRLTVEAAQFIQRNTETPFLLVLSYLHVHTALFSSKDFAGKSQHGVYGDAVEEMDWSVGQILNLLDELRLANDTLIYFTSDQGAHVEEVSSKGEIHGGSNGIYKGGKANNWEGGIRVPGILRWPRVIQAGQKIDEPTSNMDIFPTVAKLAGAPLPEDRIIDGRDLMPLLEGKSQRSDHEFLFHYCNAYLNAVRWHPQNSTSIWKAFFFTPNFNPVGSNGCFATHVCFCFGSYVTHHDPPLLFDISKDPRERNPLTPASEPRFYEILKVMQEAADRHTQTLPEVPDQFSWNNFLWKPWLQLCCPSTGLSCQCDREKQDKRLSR

steroid sulfatase (STS) [2] = target: T1, steroid sulfatase (STS); experiment: STS inhibition in placental microsomes; format: biochemical; design: a placental microsomal preparation from a sulfatase-positive human placenta from a normal term pregnancy; from tissue; host or cells: human placenta (microsomal preparation); settings: 20 μM E1S; for inhibition at 0.01 µM: 0.01 μM inhibitor; for inhibition at 0.1 µM: 0.1 μM inhibitor; for inhibition at 1 µM: 1 μM inhibitor; for inhibition at 10 µM: 10 μM inhibitor

SMILES	inhibition at 0.1 µM (steroid sulfatase (STS) [1]) [%]	inhibition at 1 µM (steroid sulfatase (STS) [1]) [%]	inhibition at 10 µM (steroid sulfatase (STS) [1]) [%]	inhibition at 0.01 µM (steroid sulfatase (STS) [2]) [%]	inhibition at 0.1 µM (steroid sulfatase (STS) [2]) [%]	inhibition at 1 µM (steroid sulfatase (STS) [2]) [%]	inhibition at 10 µM (steroid sulfatase (STS) [2]) [%]	IC50 (steroid sulfatase (STS) [2]) [nM]	IC50 (steroid sulfatase (STS) [1]) [nM]	inhibition at 0.01 µM (steroid sulfatase (STS) [1]) [%]
CCCCc1cc(=O)oc2cc(OS(N)(=O)=O)ccc12 [compound 9, 4-Butylcoumarin-7-O-sulfamate]	85	91	93	10	49	91	98	102		
CCCCCc1cc(=O)oc2cc(OS(N)(=O)=O)ccc12 [compound 10, 4-Pentylcoumarin-7-O-sulfamate]	88	92	95	22	70	97	99	40	10	52
CCCCCCc1cc(=O)oc2cc(OS(N)(=O)=O)ccc12 [compound 11, 4-Hexylcoumarin-7-O-sulfamate]	87	90	93	6	70	97	99	52		
CCCCCCCc1cc(=O)oc2cc(OS(N)(=O)=O)ccc12 [compound 12, 4-Heptylcoumarin-7-O-sulfamate]	93	95	99	8	64	97	99	90		
CCCCCCCCc1cc(=O)oc2cc(OS(N)(=O)=O)ccc12 [compound 13, 4-Octylcoumarin-7-O-sulfamate]	90	97	99	28	74	97	99	68		
CCCCCCCCCc1cc(=O)oc2cc(OS(N)(=O)=O)ccc12 [compound 14, 4-Nonylcoumarin-7-O-sulfamate]	96	98	100	18	79	97	99	60		90
CCCCCCCCCCc1cc(=O)oc2cc(OS(N)(=O)=O)ccc12 [compound 15, 4-Decylcoumarin-7-O-sulfamate]	95	98	100	17	74	96	99	60		86
CCCCCCCCCCCc1cc(=O)oc2cc(OS(N)(=O)=O)ccc12 [compound 16, 4-Undecylcoumarin-7-O-sulfamate]				8	56	92	97	73		
CCCCCCCCCCCCc1cc(=O)oc2cc(OS(N)(=O)=O)ccc12 [compound 17, 4-Dodecylcoumarin-7-O-sulfamate]	67	95	98	17	68	89	96	45		22
CCCCCCCCCCCCCc1cc(=O)oc2cc(OS(N)(=O)=O)ccc12 [compound 18, 4-Tridecylcoumarin-7-O-sulfamate]	96			7	55	80	91	85	3.2	72
CC(C)c1cc(=O)oc2cc(OS(N)(=O)=O)ccc12 [compound 19, 4-(Prop-2-yl)coumarin-7-O-sulfamate]					86	90	94			
CC(C)Cc1cc(=O)oc2cc(OS(N)(=O)=O)ccc12 [compound 20, 4-(1′,1′-Dimethylethyl)coumarin-7-O-sulfamate]					19	97				
NS(=O)(=O)Oc1ccc2c(CCl)cc(=O)oc2c1 [compound 21, 4-Chloromethylcoumarin-7-O-sulfamate]	33	82	92	10	19	59	94	600	220	6
NS(=O)(=O)Oc1ccc2c(-c3ccccc3)cc(=O)oc2c1 [compound 22, 4-Phenylcoumarin-7-O-sulfamate]	36	79	87					200		
NS(=O)(=O)Oc1ccc2c(Cc3ccccc3)cc(=O)oc2c1 [compound 23, 4-Benzylcoumarin-7-O-sulfamate]	55	70	84	2	61	96	99	64	75	8
NS(=O)(=O)Oc1ccc2c(CCc3ccccc3)cc(=O)oc2c1 [compound 24, 4-(2-Phenylethyl)coumarin-7-O-sulfamate]	84	95	98	8	53	93	98	82	18	39
CCc1ccc(-c2cc(=O)oc3cc(OS(N)(=O)=O)ccc23)cc1 [compound 25, 4-(4-Ethylphenyl)coumarin-7-O-sulfamate]	24	73	84			27	85	2600	350	6
NS(=O)(=O)Oc1ccc2c(C3CCCCC3)cc(=O)oc2c1 [compound 26, 4-Cyclohexylcoumarin-7-O-sulfamate]	72	80	93	9	69	94	99	42	24	37
NS(=O)(=O)Oc1ccc2c(CC34CC5CC(CC(C5)C3)C4)cc(=O)oc2c1 [compound 27, 4-(1-Adamantanemethyl)coumarin-7-O-sulfamate]					8	96				
CCCCCc1c(C)c2ccc(OS(N)(=O)=O)cc2oc1=O [compound 28, 4-Methyl-3-pentylcoumarin-7-O-sulfamate]	97	99	100	41	94	99	100	12		
CCCCCCc1c(C)c2ccc(OS(N)(=O)=O)cc2oc1=O [compound 29, 3-Hexyl-4-methylcoumarin-7-O-sulfamate]	99	100	100	13	88	99	99			
CCCCCCCCCCCc1c(C)c2ccc(OS(N)(=O)=O)cc2oc1=O [compound 34, 4-Methyl-3-undecylcoumarin-7-O-sulfamate]								2000		
CCCCCCCCCCCCCCc1c(C)c2ccc(OS(N)(=O)=O)cc2oc1=O [compound 37, 4-Methyl 3-tetradecylcoumarin-7-O-sulfamate]								10000		
Cc1c(Cl)c(=O)oc2cc(OS(N)(=O)=O)ccc12 [compound 39, 3-Chloro-4-methylcoumarin-7-O-sulfamate]	29	67	87						600	
Cc1c(CC2CCCCC2)c(=O)oc2cc(OS(N)(=O)=O)ccc12 [compound 44, 3-Cyclohexylmethyl-4-methylcoumarin-7-O-sulfamate]					74	99				
Cc1c(CCC2CCCCC2)c(=O)oc2cc(OS(N)(=O)=O)ccc12 [compound 45, 3-(2-Cyclohexylethyl)-4-methylcoumarin-7-O-sulfamate]					37	99				
